Assay results from patent publication US20080021034A1, “Compositions and methods for modulating gated ion channels” (PainCeptor Pharma Corporation, priority 2006, published 2008).

Test system: proton-gated ion channels (ASIC)
Test: Two-electrode voltage clamp in Xenopus laevis oocytes expressing gated ion channels (Xo)
Format: cell-based
Conditions: acidic solution (pH<7) activation
Procedure: Two-electrode voltage clamp electrophysiological assays in Xenopus laevis oocytes expressing gated ion channels are performed as follows:
Oocytes are surgically removed from adult Xenopus laevis and treated for 2 h at room temperature with 1 mg/ml type I collagenase (Sigma) in Barth's solution under mild agitation. Selected oocytes at stage IV-V are defolliculated manually before nuclear microinjection of 2.5-5 ng of a suitable expression vector, such as pCDNA3, comprising the nucleotide sequence encoding a gated ion channel subunit protein. In such an experiment, the oocytes express homomultimeric proton-gated ion channels on their surface. In an alternate experiment, one, two, three or more vectors comprising the coding sequences for distinct gated ion channel subunits are co-injected in the oocyte nuclei. In the latter case, oocytes express heteromultimeric proton-gated ion channels. For example, ASIC2a and/or ASIC3 subunits in pcDNA3 vector are co-injected at a 1:1 cDNA ratio. After 2-4 days of expression at 19° C. in Barth's solution containing […] gentamicin and 1.8 mM CaCl2, gated ion channels are activated by applying an acidic solution (pH<7) and currents are recorded in a two electrode voltage-clamp configuration, using an OC-725B amplifier (Warner Instruments). Currents are acquired and digitized at 500 Hz on an Apple Imac G3 computer with an A/D NB-MIO-16XL interface (National Instruments) and recorded traces are post-filtered at 100 Hz in Axograph (Axon Instruments) (Neher, E. and Sakmann, B. (1976) Nature 260:799-802). Once impaled with the microelectrodes, oocytes are continuously superfused at 10-12 ml/min with a modified Ringer's solution containing 97 mM NaCl, 2 mM KCl, 1.8 mM CaCl2, and 10 mM HEPES brought to pH 7.4 with NaOH (Control Ringer). Test Ringer solution is prepared by replacing HEPES with MES and adjusting the pH to the desired acidic value. Compounds of the present invention are prepared in both the Control and Test Ringer solutions and applied to oocytes at room temperature through a computer-controlled switching valve system. Osmolarity of all solutions is adjusted to 235 mOsm with choline chloride. Similarly, recordings can also be acquired in an automated multichannel oocytes system as the OpusExpress™ (Molecular Devices, Sunnyvale, USA).

SMILES	Xo: percent binding data	percent effect on acid-evoked current (two-electrode voltage clamp)
CN1CC=C(/C(=N\Nc2ccc([N+](=O)[O-])cc2[N+](=O)[O-])c2ccccc2)CC1 [Compound 44]	< 20%	
CN1CCC(O)(/C(=N\Nc2ccccc2)c2ccccc2)CC1 [Compound 46]		< 20%
CN1CCC(O)(/C(=N\Nc2ccc([N+](=O)[O-])cc2[N+](=O)[O-])c2ccccc2)CC1 [Compound 42]	< 20%	
CN1CCC2=C(c3ccccc3)CCC(NC(=O)c3ccc(/C=N/O)cc3)C2C1 (stereo not shown) [Compound 36]		< 20%
CN1CCC2=C(c3ccccc3)Cn3c(=O)n(C)c(=O)n3C2C1 (stereo not shown) [Compound 56]		< 20%
CN1CCC2=C(c3ccccc3)CCC(NC(=O)c3cccc(/C=N/O)c3)[C@H]2C1 (stereo partly shown) [Compound 27]		< 20%
CN1CC[C@@H]2/C(=N\NC(N)=O)c3ccccc3[C@@H]2C1 [Compound 43]		< 20%
CN1CCC(O)(/C(=N/N)c2ccccc2)CC1 [Compound 39a]		< 20%
COC(=O)C1=CCC(c2ccccc2)=C2CCN(C(=O)OC(C)(C)C)CC12 (stereo not shown) [Compound 8]		< 20%
CN1CCC2=C(c3ccccc3)CC[C@@H](C(=O)N(C)C)C2C1 (stereo partly shown) [Compound 16]		< 20%
CN1CCC2=C(c3ccccc3)CC=C(C#N)[C@H]2C1 [Compound 7]		< 20%
CN1CCC2=C(c3ccccc3)CC[C@@H](C(=O)N3CCNCC3)[C@H]2C1 [Compound 22]		< 20%
CCOC(=O)N1CC(c2ccccc2)=C2CCN(C(=O)OC(C)(C)C)C[C@@H]2N1C(=O)OCC [Compound 2]		< 20%
CN1CCC2=C(c3ccccc3)CCC(C(=O)Nc3cccc(Cl)c3)C2C1 (stereo not shown) [Compound 12]		< 20%
COC(=O)C1=C(C(=O)OC)C2CN(C(=O)OC(C)(C)C)CCC2=C(c2ccccc2)C1 (stereo not shown) [Compound 6]		< 20%
CN1CCC2=C(c3ccccc3)Cn3c(=O)n(-c4ccccc4)c(=O)n3C2C1 (stereo not shown) [Compound 57]		< 20%
CN1CCC(O)(/C(=N\Nc2ccccn2)c2ccccc2)CC1 [Compound 48]		< 20%
CCOC(=O)C1CCC(c2ccccc2)=C2CCN(C)CC21 (stereo not shown) [Compound 10]		< 20%
CCOC(=O)c1cccnc1N/N=C(/c1ccccc1)C1(O)CCN(C)CC1 [Compound 51]		< 20%
CCOC(=O)N1NCC(c2ccccc2)=C2CCN(C)CC21 (stereo not shown) [Compound 3]		< 20%
CC(C)(C)OC(=O)N1CCC2=C(c3ccccc3)CC[C@@H]([N+](=O)[O-])[C@H]2C1 [Compound 31]		< 20%
CN1CCC(O)(/C(=N\NC(=O)c2ccc(O)cc2O)c2ccccc2)CC1 [Compound 45]		< 20%
CN1CCC2=C(c3ccccc3)CCC(NC(=O)c3ccccc3O)C2C1 (stereo not shown) [Compound 34]		< 20%
CN1CCC2=C(c3ccccc3)CC[C@@H](C(=O)Nc3ccccc3)C2C1 (stereo partly shown) [Compound 17]		< 20%
CN1CCC2=C(c3ccccc3)CCC(C(=O)OCCO)C2C1 (stereo not shown) [Compound 11]		< 20%
N#CC1=CCC(c2ccccc2)=C2CCNCC12 (stereo not shown) [Compound 4]		< 20%
CN1CCC2=C(c3ccccc3)CCC(C(=O)Nc3ccc(Cl)cc3)C2C1 (stereo not shown) [Compound 13]		< 20%
CN1CCC2=C(c3ccccc3)CCC(NC(=O)c3ccc(C=O)cc3)C2C1 (stereo not shown) [Compound 33]		< 20%

SMILES	Xo: percent binding data	percent effect on acid-evoked current (two-electrode voltage clamp)
C#CCNC(=O)[C@@H]1CCC(c2ccccc2)=C2CCN(C)CC21 (stereo partly shown) [Compound 15]		< 20%
CCOC(=O)C1=C(Nc2ccccc2)CCN(Cc2ccccc2)C1 [Compound 55]	<20%	
CN1CCC2=C(c3ccccc3)CCC(NC(=O)c3cccc(O)c3)C2C1 (stereo not shown) [Compound 30]		< 20%
CN1CCC2=C(c3ccccc3)CCC(N)C2C1 (stereo not shown) [Compound 26]		< 20%
CN1CCC(O)(/C(=N\NC(=O)c2ccccc2[N+](=O)[O-])c2ccccc2)CC1 [Compound 50]		< 20%
CN1CCC2=C(c3ccccc3)CC[C@@H](C(=O)NCc3ccccc3)[C@H]2C1 [Compound 21]		< 20%
CC(=O)N[C@@H]1CCC(c2ccccc2)=C2CCN(C)C[C@@H]21 [Compound 24]		< 20%
CC(C)(C)OC(=O)N1CCC2=C(c3ccccc3)CC=C(C#N)C2C1 (stereo not shown) [Compound 5]		< 20%
CN1CCC(O)(/C(=N\NC(=O)c2ccccc2N)c2ccccc2)CC1 [Compound 37]		< 20%
CN1CCC2=C(c3ccccc3)CCC(C(=O)O)C2C1 (stereo not shown) [Compound 9]		< 20%
CN1CCC2=C(c3ccccc3)CC[C@@H](NC(=O)c3ccc(O)cc3)[C@H]2C1 [Compound 29]	< 20%	
CN1CCC2=C(c3ccccc3)CC[C@@H](C(=O)Nc3cccnc3)C2C1 (stereo partly shown) [Compound 19]		< 20%
CN1CCC2=C(c3ccccc3)CCC(NC(=O)c3cccc(C=O)c3)C2C1 (stereo not shown) [Compound 32]		< 20%
CN1CCC2=C(c3ccccc3)CCC(NC(=O)c3ccc(Cl)cc3)C2C1 (stereo not shown) [Compound 35]		< 20%
CN1CCC2=C(c3ccccc3)CC[C@@H](C(=O)Nc3ccccn3)C2C1 (stereo partly shown) [Compound 18]		< 20%
CN1CCC2=C(c3ccccc3)CC[C@@H](NC(=O)c3ccccc3)[C@H]2C1 [Compound 25]		< 20%
CN1CCC2=C(c3ccccc3)CC[C@@H](C(=O)NCCO)C2C1 (stereo partly shown) [Compound 20]		< 20%
CN1CCC(O)(/C(=N\NC(=O)c2ccco2)c2ccccc2)CC1 [Compound 47]		< 20%
CN1CCC2=C(c3ccccc3)CC[C@@H]([N+](=O)[O-])[C@H]2C1 [Compound 23]		< 20%
CCOC(=O)N1CC(c2ccccc2)=C2CCN(C)CC2N1C(=O)OCC (stereo not shown) [Compound 1]		< 20%
CN1CC[C@@H]2C(=O)c3ccccc3[C@@H]2C1 [Compound 40]		< 20%
CN1CC[C@@H]2/C(=N/O)c3ccccc3[C@@H]2C1 [Compound 41]		< 20%
CN1CC[C@@H]2/C(=N/Nc3ccc([N+](=O)[O-])cc3[N+](=O)[O-])c3ccccc3[C@@H]2C1 [Compound 39]	< 20%	
CN1CCC2=C(c3ccccc3)CCC(NC(=O)c3ccc(/C=N/O)cc3)[C@H]2C1 (stereo partly shown) [Compound 28]		< 20%
CN1CCC2=C(c3ccccc3)CC[C@@H](C(=O)Nc3ccccc3Cl)C2C1 (stereo partly shown) [Compound 14]		< 20%
CN1CCC(O)(/C(=N\NC(=O)c2cccc(O)c2)c2ccccc2)CC1 [Compound 54]		< 20%
CN1CCC(O)(C(=NNC(N)=O)c2ccccc2)CC1 [Compound 52]		< 20%
